# Assay results reported in ChEMBL document CHEMBL5137131, “Mechanisms of Biochanin A Alleviating PM2.5 Organic Extracts-Induced EMT of A549 Cells through the PI3K/Akt Pathway” (J Nat Prod, 2022).
# Calls of active or inactive are those of the source. The rule behind the calls is not given here.
# Experiments:
# [1] = system: A549; assay: Inhibition of PM2.5 induced PI3K expression in human A549 cells at 10 uM by qRT-PCR analysis; assay type: functional, cell-based
# [2] = system: A549; assay: Inhibition of PM2.5 induced PI3K upregulation in human A549 cells at 10 uM by Western blot analysis relative to control; assay type: functional
# [3] = biological target: Serine/threonine-protein kinase AKT (Homo sapiens) (UniProt P31751+Q9Y243+P31749); assay: Inhibition of PM2.5 induced Akt phosphorylation upregulation in human A549 cells at 10 uM by Western blot analysis relative to control; assay type: cell-based
# Sequence of Serine/threonine-protein kinase AKT (Homo sapiens) (P31749 whole entry, looked up): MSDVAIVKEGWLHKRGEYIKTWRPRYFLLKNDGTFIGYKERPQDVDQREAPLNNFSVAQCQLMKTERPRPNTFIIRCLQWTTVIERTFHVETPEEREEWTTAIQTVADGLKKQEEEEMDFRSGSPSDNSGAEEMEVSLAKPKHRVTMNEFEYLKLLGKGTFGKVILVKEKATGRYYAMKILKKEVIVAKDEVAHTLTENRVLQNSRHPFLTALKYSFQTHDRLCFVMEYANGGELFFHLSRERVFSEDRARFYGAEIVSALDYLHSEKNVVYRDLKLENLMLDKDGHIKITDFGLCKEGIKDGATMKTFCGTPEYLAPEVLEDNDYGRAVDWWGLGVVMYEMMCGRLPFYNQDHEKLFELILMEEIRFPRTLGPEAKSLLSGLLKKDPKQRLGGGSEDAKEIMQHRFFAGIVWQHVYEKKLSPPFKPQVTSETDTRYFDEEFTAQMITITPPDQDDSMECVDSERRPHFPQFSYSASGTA
# Sequence of Serine/threonine-protein kinase AKT (Homo sapiens) (P31751 whole entry, looked up): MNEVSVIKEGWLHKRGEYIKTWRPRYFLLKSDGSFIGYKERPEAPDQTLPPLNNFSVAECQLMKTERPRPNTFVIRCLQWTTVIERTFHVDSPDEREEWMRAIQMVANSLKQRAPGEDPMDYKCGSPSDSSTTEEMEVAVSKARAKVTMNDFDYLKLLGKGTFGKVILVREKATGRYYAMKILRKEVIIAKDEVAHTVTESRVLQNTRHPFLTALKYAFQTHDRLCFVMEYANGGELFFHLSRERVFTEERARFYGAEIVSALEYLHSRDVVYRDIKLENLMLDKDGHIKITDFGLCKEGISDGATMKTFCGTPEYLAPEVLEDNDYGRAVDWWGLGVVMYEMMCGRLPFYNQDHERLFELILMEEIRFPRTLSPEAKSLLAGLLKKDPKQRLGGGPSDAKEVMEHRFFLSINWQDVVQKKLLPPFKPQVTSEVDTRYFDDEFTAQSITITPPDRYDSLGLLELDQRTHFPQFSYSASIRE
# Sequence of Serine/threonine-protein kinase AKT (Homo sapiens) (Q9Y243 whole entry, looked up): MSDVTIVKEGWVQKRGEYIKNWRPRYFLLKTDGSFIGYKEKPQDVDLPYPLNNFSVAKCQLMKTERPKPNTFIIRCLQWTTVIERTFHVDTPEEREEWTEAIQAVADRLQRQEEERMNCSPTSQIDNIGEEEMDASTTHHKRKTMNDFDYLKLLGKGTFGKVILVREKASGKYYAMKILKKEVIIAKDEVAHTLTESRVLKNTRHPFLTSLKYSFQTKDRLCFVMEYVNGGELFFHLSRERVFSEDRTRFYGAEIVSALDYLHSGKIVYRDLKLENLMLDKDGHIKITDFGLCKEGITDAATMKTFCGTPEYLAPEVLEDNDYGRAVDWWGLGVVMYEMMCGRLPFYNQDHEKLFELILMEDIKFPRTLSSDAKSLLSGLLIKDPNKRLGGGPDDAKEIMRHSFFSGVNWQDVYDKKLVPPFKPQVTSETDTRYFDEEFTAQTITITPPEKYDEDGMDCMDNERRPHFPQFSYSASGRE
# [4] = system: A549; assay: Downregulation of PM2.5 induced Snail expression in human A549 cells; assay type: functional, cell-based
# [5] = system: A549; assay: Downregulation of PM2.5 induced vimentin expression in human A549 cells at 10 uM by Western blot analysis; assay type: functional, cell-based
# [6] = system: A549; assay: Inhibition of PM2.5 induced E-cadherin downregulation in human A549 cells at 10 uM by Western blot analysis; assay type: functional, cell-based
# [7] = system: A549; assay: Downregulation of PM2.5 induced Slug expression in human A549 cells; assay type: functional, cell-based
# [8] = system: A549; assay: Inhibition of PM2.5 induced Akt phosphorylation in human A549 cells at 10 uM […]; assay type: functional, cell-based
smiles,measurement,setting,value
O=c1cc(N2CCOCC2)oc2c(-c3ccccc3)cccc12 [LY-294002],inhibition,[1],Active
same,inhibition at 10 µM,[2],84.3%
same,inhibition,[3],15%
same,Activity,[4],Active
same,Activity,[5],Active
same,inhibition,[6],Active
same,Activity,[7],Active
same,inhibition,[8],Active
